# Assay results as given in patent US12660819B2, “Herbicidal derivatives” (SYNGENTA CROP PROTECTION AG, priority 2020, dated 2026).
# Experiments:
# Type in all cases: in vivo
# [1] = system: Amaranthus palmeri (AMAPA); assay: Post-emergence Test (glasshouse, percentage damage to the plant); details: 1000 g/ha unless otherwise stated, evaluated after 13 days; for AMAPA, percentage damage caused to the plant (five-point scale): post-emergence
# Method in brief: (§1)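 Sown pots; spray 1000 g/ha (unless stated) in acetone/water 50:50 + 0.5% Tween 20; glasshouse 24/16 °C, 14 h light, 65% RH; watered twice daily; % damage read at 13 days, scored 1–5.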
# [2] = system: Amaranthus retoflexus (AMARE); assay: as above; details: 1000 g/ha unless otherwise stated, evaluated after 13 days; for AMARE, percentage damage caused to the plant (five-point scale): post-emergence
# Method in brief: as §1
# [3] = system: Echinochloa crus-galli (ECHCG); assay: as above; details: 1000 g/ha unless otherwise stated, evaluated after 13 days; for ECHCG, percentage damage caused to the plant (five-point scale): post-emergence
# Method in brief: as §1
# [4] = system: Ipomoea hederacea (IPOHE); assay: as above; details: 1000 g/ha unless otherwise stated, evaluated after 13 days; for IPOHE, percentage damage caused to the plant (five-point scale): post-emergence
# Method in brief: (§2)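 Seeds sown in standard soil in a glasshouse (24/16 °C day/night, 14 h light, 65% humidity), then sprayed with an aqueous solution of the compound formulated in acetone/water 50:50 with 0.5% Tween 20 at 1000 g/ha unless otherwise stated. Percentage damage was scored after 13 days on a five-point scale (5=81-100%; 1=0-20%).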
# Setaria faberi (SETFA) [5] = assay: as above; details: 1000 g/ha unless otherwise stated, evaluated after 13 days; for SETFA, percentage damage caused to the plant (five-point scale): post-emergence
# Method in brief: as §2
# Zea mays (ZEAMX) [6] = assay: as above; details: 1000 g/ha unless otherwise stated, evaluated after 13 days; for ZEAMX, percentage damage caused to the plant (five-point scale): post-emergence
# Method in brief: as §2
# [7] = system: Amaranthus retoflexus (AMARE); assay: Pre-emergence Test (glasshouse, percentage damage to the plant); details: 1000 g/ha unless otherwise stated; for percentage damage to the plant, AMARE (five-point scale): Amaranthus retoflexus
# Setaria faberi (SETFA) [8] = assay: as above; details: 1000 g/ha unless otherwise stated; for percentage damage to the plant, SETFA (five-point scale): Setaria faberi
# [9] = system: Echinochloa crus-galli (ECHCG); assay: as above; details: 1000 g/ha unless otherwise stated; for percentage damage to the plant, ECHCG (five-point scale): Echinochloa crus-galli
# [10] = system: Ipomoea hederacea (IPOHE); assay: as above; details: 1000 g/ha unless otherwise stated; for percentage damage to the plant, IPOHE (five-point scale): Ipomoea hederacea
# Zea mays (ZEAMX) [11] = assay: as above; details: 1000 g/ha unless otherwise stated; for percentage damage to the plant, ZEAMX (five-point scale): Zea mays
# [12] = system: Amaranthus palmeri (AMAPA); assay: as above; details: 1000 g/ha unless otherwise stated; for percentage damage to the plant, AMAPA (five-point scale): Amaranthus palmeri
smiles,measurement,setting,value
"CCn1c(C)c(-c2cccc(C(F)(F)F)c2F)c(=O)c(C(=O)O)c1-c1ccc(Cl)c(Cl)c1 [Compound 207, 2-(3,4-dichlorophenyl)-1-ethyl-5-[2-fluoro-3-(trifluoromethyl)phenyl]-6-methyl-4-oxo-pyridine-3-carboxylic acid]","AMAPA, percentage damage caused to the plant (five-point scale)",[1],3 (3=41-60%)
same,"AMARE, percentage damage caused to the plant (five-point scale)",[2],3 (3=41-60%)
same,"ECHCG, percentage damage caused to the plant (five-point scale)",[3],4 (4=61-80%)
same,"IPOHE, percentage damage caused to the plant (five-point scale)",[4],4 (4=61-80%)
same,"SETFA, percentage damage caused to the plant (five-point scale)",Setaria faberi (SETFA) [5],4 (4=61-80%)
same,"ZEAMX, percentage damage caused to the plant (five-point scale)",Zea mays (ZEAMX) [6],3 (3=41-60%)
same,"percentage damage to the plant, AMARE (five-point scale)",[7],3 (3=41-60%)
same,"percentage damage to the plant, SETFA (five-point scale)",Setaria faberi (SETFA) [8],5 (5=81-100%)
same,"percentage damage to the plant, ECHCG (five-point scale)",[9],2 (2=21-40%)
same,"percentage damage to the plant, IPOHE (five-point scale)",[10],3 (3=41-60%)
same,"percentage damage to the plant, ZEAMX (five-point scale)",Zea mays (ZEAMX) [11],1 (1=0-20%)
same,"percentage damage to the plant, AMAPA (five-point scale)",[12],3 (3=41-60%)
"CCn1c(C)c(-c2ccc(F)cc2OC)c(=O)c(C(=O)OC)c1-c1ccc(Cl)c(Cl)c1 [Compound 163, methyl 2-(3,4-dichlorophenyl)-1-ethyl-5-(4-fluoro-2-methoxy-phenyl)-6-methyl-4-oxo-pyridine-3-carboxylate]","Post-emergence Test AMAPA, percentage damage to the plant (five-point scale)",[1]; post-emergence spray,2 (2=21-40%)
same,"Post-emergence Test AMARE, percentage damage to the plant (five-point scale)",[2]; post-emergence spray,1 (1=0-20%)
same,"Post-emergence Test ECHCG, percentage damage to the plant (five-point scale)",[3]; post-emergence spray,0
same,"Post-emergence Test IPOHE, percentage damage to the plant (five-point scale)",[4]; post-emergence spray,0
same,"Post-emergence Test SETFA, percentage damage to the plant (five-point scale)",Setaria faberi (SETFA) [5]; post-emergence spray,0
same,"Post-emergence Test ZEAMX, percentage damage to the plant (five-point scale)",Zea mays (ZEAMX) [6]; post-emergence spray,0
same,"percentage damage to the plant, AMARE",[7]; five-point scale,1 (1=0-20%)
same,"percentage damage to the plant, SETFA",Setaria faberi (SETFA) [8]; five-point scale,0
same,"percentage damage to the plant, ECHCG",[9]; five-point scale,0
same,"percentage damage to the plant, IPOHE",[10]; five-point scale,0
same,"percentage damage to the plant, ZEAMX",Zea mays (ZEAMX) [11]; five-point scale,1 (1=0-20%)
same,"percentage damage to the plant, AMAPA",[12]; five-point scale,1 (1=0-20%)
"CCn1c(C)c(-c2cc(OCCOC)c(Cl)cc2F)c(=O)c(C(=O)O)c1-c1ccc(F)c(F)c1 [Compound 261, 5-[4-chloro-2-fluoro-5-(2-methoxyethoxy)phenyl]-2-(3,4-difluorophenyl)-1-ethyl-6-methyl-4-oxo-pyridine-3-carboxylic acid]","AMAPA, percentage damage caused to the plant (five-point scale)",[1],4 (4=61-80%)
same,"AMARE, percentage damage caused to the plant (five-point scale)",[2],5 (5=81-100%)
same,"ECHCG, percentage damage caused to the plant (five-point scale)",[3],4 (4=61-80%)
same,"IPOHE, percentage damage caused to the plant (five-point scale)",[4],2 (2=21-40%)
same,"SETFA, percentage damage caused to the plant (five-point scale)",Setaria faberi (SETFA) [5],4 (4=61-80%)
same,"ZEAMX, percentage damage caused to the plant (five-point scale)",Zea mays (ZEAMX) [6],3 (3=41-60%)
same,"percentage damage to the plant, AMARE (five-point scale)",[7],4 (4=61-80%)
same,"percentage damage to the plant, SETFA (five-point scale)",Setaria faberi (SETFA) [8],4 (4=61-80%)
same,"percentage damage to the plant, ECHCG (five-point scale)",[9],4 (4=61-80%)
same,"percentage damage to the plant, IPOHE (five-point scale)",[10],4 (4=61-80%)
same,"percentage damage to the plant, ZEAMX (five-point scale)",Zea mays (ZEAMX) [11],1 (1=0-20%)
same,"percentage damage to the plant, AMAPA (five-point scale)",[12],5 (5=81-100%)
"CCn1c(C)c(-c2ccc(F)cc2)c(=O)c(C(=O)OC)c1-c1cnc(Cl)c(Cl)c1 [Compound 212, methyl 2-(5,6-dichloro-3-pyridyl)-1-ethyl-5-(4-fluorophenyl)-6-methyl-4-oxo-pyridine-3-carboxylate]","AMAPA, percentage damage caused to the plant (five-point scale)",[1],1 (1=0-20%)
same,"AMARE, percentage damage caused to the plant (five-point scale)",[2],1 (1=0-20%)
same,"ECHCG, percentage damage caused to the plant (five-point scale)",[3],0
same,"IPOHE, percentage damage caused to the plant (five-point scale)",[4],0
same,"SETFA, percentage damage caused to the plant (five-point scale)",Setaria faberi (SETFA) [5],0
same,"ZEAMX, percentage damage caused to the plant (five-point scale)",Zea mays (ZEAMX) [6],0
same,"percentage damage to the plant, AMARE (five-point scale)",[7],0
same,"percentage damage to the plant, SETFA (five-point scale)",Setaria faberi (SETFA) [8],3 (3=41-60%)
same,"percentage damage to the plant, ECHCG (five-point scale)",[9],2 (2=21-40%)
same,"percentage damage to the plant, IPOHE (five-point scale)",[10],0
same,"percentage damage to the plant, ZEAMX (five-point scale)",Zea mays (ZEAMX) [11],0
same,"percentage damage to the plant, AMAPA (five-point scale)",[12],1 (1=0-20%)
"CCn1c(C)c(-c2ccc3ccccc3n2)c(=O)c(C(=O)O)c1-c1ccc(Cl)c(Cl)c1 [Compound 219, 2-(3,4-dichlorophenyl)-1-ethyl-6-methyl-4-oxo-5-(2-quinolyl)pyridine-3-carboxylic acid]","AMAPA, percentage damage caused to the plant (five-point scale)",[1],3 (3=41-60%)
same,"AMARE, percentage damage caused to the plant (five-point scale)",[2],3 (3=41-60%)
same,"ECHCG, percentage damage caused to the plant (five-point scale)",[3],1 (1=0-20%)
same,"IPOHE, percentage damage caused to the plant (five-point scale)",[4],3 (3=41-60%)
same,"SETFA, percentage damage caused to the plant (five-point scale)",Setaria faberi (SETFA) [5],1 (1=0-20%)
same,"ZEAMX, percentage damage caused to the plant (five-point scale)",Zea mays (ZEAMX) [6],0
same,"percentage damage to the plant, AMARE (five-point scale)",[7],0
same,"percentage damage to the plant, SETFA (five-point scale)",Setaria faberi (SETFA) [8],1 (1=0-20%)
same,"percentage damage to the plant, ECHCG (five-point scale)",[9],0
same,"percentage damage to the plant, IPOHE (five-point scale)",[10],0
same,"percentage damage to the plant, ZEAMX (five-point scale)",Zea mays (ZEAMX) [11],0
same,"percentage damage to the plant, AMAPA (five-point scale)",[12],1 (1=0-20%)
"CCn1c(C)c(-c2cc(C(F)(F)F)ccc2F)c(=O)c(C(=O)O)c1-c1ccc(Cl)c(Cl)c1 [Compound 206, 2-(3,4-dichlorophenyl)-1-ethyl-5-[2-fluoro-5-(trifluoromethyl)phenyl]-6-methyl-4-oxo-pyridine-3-carboxylic acid]","AMAPA, percentage damage caused to the plant (five-point scale)",[1],4 (4=61-80%)
same,"AMARE, percentage damage caused to the plant (five-point scale)",[2],4 (4=61-80%)
same,"ECHCG, percentage damage caused to the plant (five-point scale)",[3],2 (2=21-40%)
same,"IPOHE, percentage damage caused to the plant (five-point scale)",[4],2 (2=21-40%)
same,"SETFA, percentage damage caused to the plant (five-point scale)",Setaria faberi (SETFA) [5],4 (4=61-80%)
same,"ZEAMX, percentage damage caused to the plant (five-point scale)",Zea mays (ZEAMX) [6],1 (1=0-20%)
same,"percentage damage to the plant, AMARE (five-point scale)",[7],2 (2=21-40%)
same,"percentage damage to the plant, SETFA (five-point scale)",Setaria faberi (SETFA) [8],5 (5=81-100%)
same,"percentage damage to the plant, ECHCG (five-point scale)",[9],2 (2=21-40%)
same,"percentage damage to the plant, IPOHE (five-point scale)",[10],3 (3=41-60%)
same,"percentage damage to the plant, ZEAMX (five-point scale)",Zea mays (ZEAMX) [11],0
same,"percentage damage to the plant, AMAPA (five-point scale)",[12],4 (4=61-80%)
"CCn1c(C)c(-c2ccc(Cl)cc2Cl)c(=O)c(C(=O)O)c1-c1cnc(Cl)c(Cl)c1 [Compound 209, 5-(2,4-dichlorophenyl)-2-(5,6-dichloro-3-pyridyl)-1-ethyl-6-methyl-4-oxo-pyridine-3-carboxylic acid]","AMAPA, percentage damage caused to the plant (five-point scale)",[1],5 (5=81-100%)
same,"AMARE, percentage damage caused to the plant (five-point scale)",[2],5 (5=81-100%)
same,"ECHCG, percentage damage caused to the plant (five-point scale)",[3],5 (5=81-100%)
same,"IPOHE, percentage damage caused to the plant (five-point scale)",[4],4 (4=61-80%)
same,"SETFA, percentage damage caused to the plant (five-point scale)",Setaria faberi (SETFA) [5],5 (5=81-100%)
same,"ZEAMX, percentage damage caused to the plant (five-point scale)",Zea mays (ZEAMX) [6],4 (4=61-80%)
same,"percentage damage to the plant, AMARE (five-point scale)",[7],5 (5=81-100%)
same,"percentage damage to the plant, SETFA (five-point scale)",Setaria faberi (SETFA) [8],4 (4=61-80%)
same,"percentage damage to the plant, ECHCG (five-point scale)",[9],4 (4=61-80%)
same,"percentage damage to the plant, IPOHE (five-point scale)",[10],1 (1=0-20%)
same,"percentage damage to the plant, ZEAMX (five-point scale)",Zea mays (ZEAMX) [11],0
same,"percentage damage to the plant, AMAPA (five-point scale)",[12],5 (5=81-100%)
"CCn1c(C)c(-c2cc(OCC3CC3)c(Cl)cc2F)c(=O)c(C(=O)O)c1-c1ccc(F)c(F)c1 [Compound 262, 5-[4-chloro-5-(cyclopropylmethoxy)-2-fluoro-phenyl]-2-(3,4-difluorophenyl)-1-ethyl-6-methyl-4-oxo-pyridine-3-carboxylic acid]","AMAPA, percentage damage caused to the plant (five-point scale)",[1],5 (5=81-100%)
same,"AMARE, percentage damage caused to the plant (five-point scale)",[2],5 (5=81-100%)
same,"ECHCG, percentage damage caused to the plant (five-point scale)",[3],4 (4=61-80%)
same,"IPOHE, percentage damage caused to the plant (five-point scale)",[4],2 (2=21-40%)
same,"SETFA, percentage damage caused to the plant (five-point scale)",Setaria faberi (SETFA) [5],5 (5=81-100%)
same,"ZEAMX, percentage damage caused to the plant (five-point scale)",Zea mays (ZEAMX) [6],4 (4=61-80%)
same,"percentage damage to the plant, AMARE (five-point scale)",[7],5 (5=81-100%)
same,"percentage damage to the plant, SETFA (five-point scale)",Setaria faberi (SETFA) [8],5 (5=81-100%)
same,"percentage damage to the plant, ECHCG (five-point scale)",[9],5 (5=81-100%)
same,"percentage damage to the plant, IPOHE (five-point scale)",[10],3 (3=41-60%)
same,"percentage damage to the plant, ZEAMX (five-point scale)",Zea mays (ZEAMX) [11],2 (2=21-40%)
same,"percentage damage to the plant, AMAPA (five-point scale)",[12],5 (5=81-100%)
